Measured values reported in patent publication US7462228B2, “Water-base black ink composition and colored product” (Nippon Kayaku Kabushiki Kaisha, priority 2003, dated 2008).
Values after ≈ are worked out from the molar mass of the structure shown.

What was measured:
[1] = Maximum absorption wavelength in water (λmax); assay type: physicochemical
[2] = Solubility in water of the dye compound; assay type: physicochemical

maximum absorption wavelength in water (λmax) [1] | solubility [2] | Structure (SMILES)
559 nm | ≥ 100 mg/mL | COc1ccc(N=Nc2c(S(=O)(=O)O)cc3c(S(=O)(=O)O)c(N=Nc4c(S(=O)(=O)O)cc5cc(S(=O)(=O)O)c(N=Nc6ccc7c(O)c(N=Nc8ccc(OC)cc8S(=O)(=O)O)c(S(=O)(=O)O)cc7c6S(=O)(=O)O)c(O)c5c4N)ccc3c2O)c(S(=O)(=O)O)c1 [No. 2-4]
657 nm | ≥ 100 mg/mL | COc1ccc(N=Nc2c(S(=O)(=O)O)cc3cc(N=Nc4c(S(=O)(=O)O)cc5cc(S(=O)(=O)O)c(N=Nc6cc7c(O)c(N=Nc8ccc(OC)cc8S(=O)(=O)O)c(S(=O)(=O)O)cc7cc6S(=O)(=O)O)c(N)c5c4O)ccc3c2O)c(S(=O)(=O)O)c1 [No. 2-2]
650 nm | ≥ 100 mg/mL | COc1ccc(N=Nc2c(S(=O)(=O)O)cc3cc(N=Nc4c(S(=O)(=O)O)cc5cc(S(=O)(=O)O)c(N=Nc6ccc7cc(S(=O)(=O)O)c(N=Nc8ccccc8S(=O)(=O)O)c(O)c7c6)c(N)c5c4O)ccc3c2O)c(S(=O)(=O)O)c1 [No. 2-3]
660 nm | ≥ 100 mg/mL | Nc1c(N=Nc2ccc3cc(S(=O)(=O)O)c(N=Nc4ccccc4S(=O)(=O)O)c(O)c3c2)c(S(=O)(=O)O)cc2cc(S(=O)(=O)O)c(N=Nc3ccc4cc(S(=O)(=O)O)c(N=Nc5ccccc5S(=O)(=O)O)c(O)c4c3)c(O)c12 [No. 2-11]
646 nm | ≥ 100 mg/mL | COc1ccc(N=Nc2c(S(=O)(=O)O)cc3cc(N=Nc4c(S(=O)(=O)O)cc5cc(S(=O)(=O)O)c(N=Nc6ccc7cc(S(=O)(=O)O)c(N=Nc8cc(S(=O)(=O)O)ccc8S(=O)(=O)O)c(O)c7c6)c(N)c5c4O)ccc3c2O)c(S(=O)(=O)O)c1 [No. 2-29]
645 nm | ~100 mg/mL (≈ 77 mM) | COc1ccc(N=Nc2c(S(=O)(=O)O)cc3c(S(=O)(=O)O)c(N=Nc4c(S(=O)(=O)O)cc5cc(S(=O)(=O)O)c(N=Nc6ccc7c(O)c(N=Nc8ccccc8S(=O)(=O)O)c(S(=O)(=O)O)cc7c6)c(O)c5c4N)ccc3c2O)c(S(=O)(=O)O)c1 [No. 2-28]
652 nm | ≥ 100 mg/mL | COc1ccc(N=Nc2c(S(=O)(=O)O)cc3cc(N=Nc4c(S(=O)(=O)O)cc5cc(S(=O)(=O)O)c(N=Nc6ccc7cc(S(=O)(=O)O)c(N=Nc8ccc([N+](=O)[O-])cc8S(=O)(=O)O)c(O)c7c6)c(N)c5c4O)ccc3c2O)c(S(=O)(=O)O)c1 [No. 2-5]
647 nm | ~100 mg/mL (≈ 80.1 mM) | COc1ccc(N=Nc2c(S(=O)(=O)O)cc3cc(N=Nc4c(S(=O)(=O)O)cc5cc(S(=O)(=O)O)c(N=Nc6ccc7cc(S(=O)(=O)O)c(N=Nc8ccc(OC)cc8S(=O)(=O)O)c(O)c7c6)c(N)c5c4O)ccc3c2O)c(S(=O)(=O)O)c1 [No. 2-1]
